pEC50, pIC50: −log10 of the molar value. Read-outs that look alike come from different tables or passages of the source.
Legend:
[1] = system: A/England/195/2009 (E195) influenza A virus; test: microbe, parasite or virus in culture; format: cell-based; details: for pIC50: read-out: Virus culture IC50
[2] = system: H1N1 WSN virus; details: read-out: EC50 in antiviral plaque assay; cited from earlier work
[3] = system: Eng195 M2-N31 TM/CD peptides; format: biochemical
[4] = system: Eng195 in MDCK culture; format: cell-based, influenza A virus
[5] = system: M2-N31 and M2-S31 CD peptides; format: biochemical, Influenza A/England/195/2009 (H1N1)

Structure (SMILES)	Virus culture Fold Titre Reduction (80 µM) [1]	pIC50 ([1]; Influenza A virus, MDCK)	antiviral effect versus Eng195 in culture [1]	TM/CD peptide preference in titration [3]	combination effect with M2WJ332 [4]	also measured
c1csc(-c2cc(CNC34CC5CC(CC(C5)C3)C4)no2)c1 [M2WJ332, (3S,5S,7S)-N-{[5-(thiophen-2-yl)-1,2-oxazol-3-yl]methyl}tricycle[3.3.1.1~3,7~]decan-1-aminium, reference compound]	100x	5.93	–	–	–	reduction in virus titre [1]: 1–2 log10; pIC50 [1]: 5.93; pEC50 [2]: 6.82
c1cc2nc(C34CC5CC(CC(C5)C3)C4)[nH]c2cn1 [D]	–	–	antiviral effects	–	–	–
O=C(Nc1nnc[nH]1)c1cc2ccccc2o1 [K]	–	–	neither B nor K exhibited antiviral effects	–	–	–
Cc1c2ccccc2n2cc(-c3ccccc3)nc(C(C)C)c12 [DL7]	100x	5.83	–	preference for CD peptides but with activity versus TM at higher concentrations	antagonism	combination effect with L1.1 [4]: antagonism
Cc1ccc2nc(Oc3ccccc3)ccc2c1 [DP9]	100x	4.30 to 4.60	–	preferential inhibition of CD peptides	synergistic	pIC50 [1]: < 4.60
OCCNC12CC3CC(CC(C3)C1)C2 [J]	–	–	antiviral effects	–	–	–
Cc1ncc(C23CC4CC(CC(C4)C2)C3)[nH]1 [H]	–	–	antiviral effects	–	–	–
CCCCCCCCCN1C[C@H](O)[C@@H](O)[C@H](O)[C@H]1CO [NNDNJ, reference compound]	–	–	antiviral effects	–	–	effect on M2 oligomerisation [5]: disrupted oligomerisation
CN1CCN(C(=O)c2ccc3ccccc3c2)CC1 [B]	–	–	neither B nor K exhibited antiviral effects	–	–	–
COc1ccccc1NC(=S)NC(=O)c1cc2ccccc2cc1OC [L1.1]	1000x	5.88	–	equivalent activity versus both TM/CD	synergistic	reduction in virus titre [1]: ~3 log10; combination effect with Zanamivir [4]: synergistic

Reference: article PMC7418971 (PLoS Pathogens, 2020)
